Results from US10131652B2, “Pyrimidinyloxy benzene derivatives as herbicides” (E. I. DU PONT DE NEMOURS AND COMPANY, priority 2014, dated 2018).

Legend:
Assay type in all cases: in vivo
[1] = system: ragweed (common ragweed, Ambrosia elatior); assay: Test B pre-/postemergence plant response
Outline: (§1)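 Seeds in loam–sand blend given preemergence soil spray; separately, plants at one- to two-leaf stage (2–10 cm) sprayed postemergence, compounds in non-phytotoxic solvent with surfactant. Injury rated visually versus untreated controls after ~10 days in greenhouse, 0 (no effect) to 100 (complete control).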

[2] = system: corn (Zea mays); assay: Test B pre-/postemergence plant response
Outline: as §1

[3] = system: giant foxtail (Setaria faberii); assay: Test B pre-/postemergence plant response
Outline: as §1

[4] = system: Italian ryegrass (Lolium multiflorum); assay: Test B pre-/postemergence plant response
Outline: as §1

[5] = system: barnyardgrass (Echinochloa crus-galli); assay: Test B pre-/postemergence plant response
Outline: as §1

[6] = system: kochia (Kochia scoparia); assay: Test B pre-/postemergence plant response
Outline: as §1

[7] = system: wheat (Triticum aestivum); assay: Test B pre-/postemergence plant response
Outline: as §1

[8] = system: pigweed (Amaranthus retroflexus); assay: Test B pre-/postemergence plant response
Outline: as §1

[9] = system: blackgrass (Alopecurus myosuroides); assay: Test B postemergence plant response
Outline: (§2)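 Weeds grown in loam soil/sand pots were sprayed postemergence at 2 to 10 cm height, one- to two-leaf stage. After approximately 10 days in greenhouse, injury was rated visually against untreated controls on a 0 (no effect) to 100 (complete control) scale; dash means no test result.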

[10] = system: galium (catchweed bedstraw, Galium aparine); assay: Test B postemergence plant response
Outline: as §2

[11] = system: ducksalad (Heteranthera limosa); assay: Test C flooded paddy test plant response; details: Flood, 250 g ai/ha; scale of 0 to 100 where 0 is no effect and 100 is complete control; 13 to 15 days
Outline: (§3)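 Scale 0 (no effect) to 100 (complete control), assigned visually versus controls after 13–15 d greenhouse. Application: directly to paddy water, 3 cm flood depth kept constant, 2-leaf stage.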

[12] = system: small-flower umbrella sedge (Cyperus difformis); assay: Test C flooded paddy test plant response; details: Flood, 250 g ai/ha; scale of 0 to 100 where 0 is no effect and 100 is complete control; 13 to 15 days
Outline: as §3

[13] = system: barnyardgrass (Echinochloa crus-galli); assay: Test C flooded paddy test plant response; details: Flood, 250 g ai/ha; scale of 0 to 100 where 0 is no effect and 100 is complete control; 13 to 15 days
Outline: as §3

[14] = system: rice (Oryza sativa); assay: Test C flooded paddy test plant response; details: Flood, 250 g ai/ha; scale of 0 to 100 where 0 is no effect and 100 is complete control; 13 to 15 days
Outline: as §3

[15] = 31 g ai/ha, Preemergence, 0 to 100 scale where 0 is no effect and 100 is complete control
[16] = 125 g ai/ha, postemergence, 0 to 100 scale, 0 no effect, 100 complete control
[17] = Postemergence, 31 g ai/ha, 0 to 100 scale (0 no effect, 100 complete control)
[18] = Preemergence, 125 g ai/ha, 0 to 100 scale (0 no effect, 100 complete control)

SMILES | Plant response rating, Ragweed [1, 15] | Plant response rating, Ragweed [1, 16] | Plant response rating, Ragweed [1, 17] | Ragweed plant response rating [1, 18] | Plant response rating, Corn [2, 16] | Plant response rating, Corn [2, 17] | Plant response rating, Foxtail, Giant [3, 15] | Plant response rating, Foxtail, Giant [3, 16] | Plant response rating, Foxtail, Giant [3, 17] | Foxtail, Giant plant response rating [3, 18] | Plant response rating, Ryegrass, Italian [4, 15] | Plant response rating, Ryegrass, Italian [4, 16] | Plant response rating, Ryegrass, Italian [4, 17] | Ryegrass, Italian plant response rating [4, 18] | Plant response rating, Barnyardgrass [5, 15] | Plant response rating, Barnyardgrass [5, 16] | Plant response rating, Barnyardgrass [5, 17] | Barnyardgrass plant response rating [5, 18] | Plant response rating, Kochia [6, 15] | Plant response rating, Kochia [6, 16] | also measured
N#Cc1cc(-c2c(F)cccc2Oc2ncc(Cl)cn2)no1 [Compound 222] | 0 | 20 | 0 | 0 | 30 | 0 | 0 | 0 | 0 | 0 | 0 | 0 | 0 | 0 | 0 | 0 | 0 | 0 | 0 | 30 | Plant response rating, Kochia [6, 17]: 20; Kochia plant response rating [6, 18]: 0; Plant response rating, Wheat [7, 16]: 20; Plant response rating, Wheat [7, 17]: 0; Plant response rating, Pigweed [8, 15]: 20; Plant response rating, Pigweed [8, 16]: 100; Plant response rating, Pigweed [8, 17]: 30; Pigweed plant response rating [8, 18]: 90; Plant response rating, Blackgrass [9, 16]: 10; Plant response rating, Blackgrass [9, 17]: 0; Plant response rating, Galium [10, 16]: 90; Plant response rating, Galium [10, 17]: 30; Ducksalad plant response rating [11]: 30; Sedge, Umbrella plant response rating [12]: 0; Barnyardgrass plant response rating [13]: 0; Rice plant response rating [14]: 0
N#Cc1cc(-c2ccccc2Oc2ncc(Cl)cn2)on1 [Compound 223] | 0 | 10 | 0 | 0 | 0 | 0 | 0 | 10 | 0 | 0 | 0 | 0 | 0 | 0 | 0 | 10 | 0 | 0 | 0 | 10 | Plant response rating, Kochia [6, 17]: 0; Kochia plant response rating [6, 18]: 0; Plant response rating, Wheat [7, 16]: 0; Plant response rating, Wheat [7, 17]: 0; Plant response rating, Pigweed [8, 15]: 0; Plant response rating, Pigweed [8, 16]: 60; Plant response rating, Pigweed [8, 17]: 20; Pigweed plant response rating [8, 18]: 10; Plant response rating, Blackgrass [9, 16]: 0; Plant response rating, Blackgrass [9, 17]: 0; Plant response rating, Galium [10, 16]: 50; Plant response rating, Galium [10, 17]: 30; Ducksalad plant response rating [11]: 65; Sedge, Umbrella plant response rating [12]: 70; Barnyardgrass plant response rating [13]: 0; Rice plant response rating [14]: 0
CCOC(=O)c1cc(-c2ccccc2Oc2ncc(Cl)cn2)on1 [Compound 225] | 0 | 0 | 0 | 0 | 0 | 0 | 0 | 0 | 0 | 0 | 0 | 0 | 0 | 0 | 0 | 0 | 0 | 0 | 0 | 0 | Plant response rating, Kochia [6, 17]: 0; Kochia plant response rating [6, 18]: 0; Plant response rating, Wheat [7, 16]: 0; Plant response rating, Wheat [7, 17]: 0; Plant response rating, Pigweed [8, 15]: 0; Plant response rating, Pigweed [8, 16]: 0; Plant response rating, Pigweed [8, 17]: 0; Pigweed plant response rating [8, 18]: 0; Plant response rating, Blackgrass [9, 16]: 0; Plant response rating, Blackgrass [9, 17]: 0; Plant response rating, Galium [10, 16]: 0; Plant response rating, Galium [10, 17]: 0; Ducksalad plant response rating [11]: 0; Sedge, Umbrella plant response rating [12]: 0; Barnyardgrass plant response rating [13]: 0; Rice plant response rating [14]: 0
FC(F)(F)COc1cc(-c2ccccc2Oc2ncc(Cl)cn2)ncn1 [Compound 227] | 0 | 30 | 10 | 0 | 20 | 10 | 40 | 60 | 10 | 90 | 0 | 30 | 0 | 10 | 10 | 60 | 10 | 50 | 0 | 80 | Plant response rating, Kochia [6, 17]: 40; Kochia plant response rating [6, 18]: 50; Plant response rating, Wheat [7, 16]: 20; Plant response rating, Wheat [7, 17]: 0; Plant response rating, Pigweed [8, 15]: 40; Plant response rating, Pigweed [8, 16]: 90; Plant response rating, Pigweed [8, 17]: 60; Pigweed plant response rating [8, 18]: 80; Plant response rating, Blackgrass [9, 16]: 70; Plant response rating, Blackgrass [9, 17]: 10; Plant response rating, Galium [10, 16]: 80; Plant response rating, Galium [10, 17]: 70; Ducksalad plant response rating [11]: 98; Sedge, Umbrella plant response rating [12]: 85; Barnyardgrass plant response rating [13]: 0; Rice plant response rating [14]: 0
Clc1cnc(Oc2ccccc2-c2ccsc2)nc1 [Compound 231] | 0 | 0 | 0 | 0 | 0 | 0 | 0 | 10 | 0 | 10 | 0 | 0 | 0 | 0 | 0 | 10 | 0 | 10 | 0 | 40 | Plant response rating, Kochia [6, 17]: 20; Kochia plant response rating [6, 18]: 0; Plant response rating, Wheat [7, 16]: 0; Plant response rating, Wheat [7, 17]: 0; Plant response rating, Pigweed [8, 15]: 0; Plant response rating, Pigweed [8, 16]: 40; Plant response rating, Pigweed [8, 17]: 20; Pigweed plant response rating [8, 18]: 20; Plant response rating, Blackgrass [9, 16]: 0; Plant response rating, Blackgrass [9, 17]: 0; Plant response rating, Galium [10, 16]: 20; Plant response rating, Galium [10, 17]: 0; Ducksalad plant response rating [11]: 65; Sedge, Umbrella plant response rating [12]: 70; Barnyardgrass plant response rating [13]: 0; Rice plant response rating [14]: 0
